Reference: ChEMBL document CHEMBL1201862, “PubChem BioAssay data set” (2004)
The source made the active and inactive calls.

Tests used:
[1] = Luminescence Cell-Based Dose Retest to Confirm Inhibitors of Cancer Stem Cells. [Related pubchem assays (depositor defined):AID2717, AID2721]; type: functional; details: Homo sapiens
[2] = HIV-1 AD8 envelope cell-cell fusion blockers – cherry-pick, dose response (AID 652062); type: functional, cell-based;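 note: luciferase signal from cell-cell fusion driven by HIV-1 clade B AD8 Env; potency is for inhibitors of fusion seen as a drop in luminescence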
[3] = off-target signal loss in HeLa-CEM21 co-culture – HeLa F-luc CTL cells, cherry-picked, counter-screen for HIV-1 Env fusion inhibitor project, dose response (AID 652040); type: functional, cell-based;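 note: potency for signal decrease marking cytotoxic or nonspecific inhibition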
[4] = Trypanosoma cruzi growth suppression in host cells – NIH3T3 host cells, beta-gal luminescence, confirmation (AID 2044); type: functional, cell-based;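 note: intracellular parasites grown in NIH/3T3 mouse fibroblasts as host cells; luminescent beta-galactosidase reporter signal from transgenic T. cruzi replicating inside host cells; inhibitors lower the luminescence signal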
[5] = reduction of Shn3 3'UTR-driven luciferase in osteoblasts – cell-based, Clone20 osteoblasts, firefly luciferase, cherry-picked, dose response (AID 624132); type: functional;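 note: firefly luciferase luminescence from reporter carrying the Shn3 3'UTR in osteoblasts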
[6] = test system: INS1; assay: INS-1E survival protection against cytokine death – cell-based, luminescence, retest, dose response (AID 449756); type: functional; details: Rattus norvegicus;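 note: cell death triggered by IL-1 beta plus TNF-alpha plus IFN-gamma mixture; protective hits raise ATP signal compared with cytokine alone wells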
[7] = loss of viability in HepG2 cells – cell-based, CellTiter-Glo, cherry-picked, cytotoxicity control for Shn3 inhibitor project, dose response (AID 624134); type: functional
[8] = NIH3T3 cell viability loss – ATP luminescence, mouse fibroblasts, counter-screen, dose response (AID 2010); type: functional, cell-based;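 note: cells exposed to compound for about 90 hours before reading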
[9] = non-specific 3'UTR reporter inhibition in Clone20-Shn3RL – cell-based, Renilla luciferase, cherry-picked, counter-screen for Shn3 inhibitor project, dose response (AID 624133); type: functional
[10] = A Cell Based Secondary Assay To Explore Cytotoxicity of Compounds that Sensitize Mycobacterium Tuberculosis to Beta-Lactam Antibiotics.; type: functional
[11] = toxicity toward HepG2 liver cells – cell-based, plate reader, cherry-pick, antagonist series, cytotoxicity control, dose response (AID 743416); type: functional
[12] = A549 cell cytotoxicity, dose response, cytotoxicity control, plate reader, cherry-pick, antagonist series (AID 743412); type: functional, cell-based
[13] = target: T1, Ubiquitin-conjugating enzyme E2 N (Homo sapiens, UniProt P61088); type: functional;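 note: Dose-response confirmation in a TR-FRET assay detecting UBC13-driven polyubiquitin chain formation, inhibition measured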
T1 sequence (P61088 whole entry): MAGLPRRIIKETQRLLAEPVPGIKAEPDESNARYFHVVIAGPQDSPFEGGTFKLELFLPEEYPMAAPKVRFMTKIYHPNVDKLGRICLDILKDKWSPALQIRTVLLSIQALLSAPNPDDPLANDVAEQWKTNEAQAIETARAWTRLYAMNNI

[14] = viability loss in HEK293 cells – cell-based, plate reader, cherry-picked samples, cytotoxicity control, dose response (AID 743446); type: functional
[15] = target: T2, Apoptotic protease-activating factor 1 (Homo sapiens, UniProt O14727); type: functional
T2 sequence (O14727 whole entry): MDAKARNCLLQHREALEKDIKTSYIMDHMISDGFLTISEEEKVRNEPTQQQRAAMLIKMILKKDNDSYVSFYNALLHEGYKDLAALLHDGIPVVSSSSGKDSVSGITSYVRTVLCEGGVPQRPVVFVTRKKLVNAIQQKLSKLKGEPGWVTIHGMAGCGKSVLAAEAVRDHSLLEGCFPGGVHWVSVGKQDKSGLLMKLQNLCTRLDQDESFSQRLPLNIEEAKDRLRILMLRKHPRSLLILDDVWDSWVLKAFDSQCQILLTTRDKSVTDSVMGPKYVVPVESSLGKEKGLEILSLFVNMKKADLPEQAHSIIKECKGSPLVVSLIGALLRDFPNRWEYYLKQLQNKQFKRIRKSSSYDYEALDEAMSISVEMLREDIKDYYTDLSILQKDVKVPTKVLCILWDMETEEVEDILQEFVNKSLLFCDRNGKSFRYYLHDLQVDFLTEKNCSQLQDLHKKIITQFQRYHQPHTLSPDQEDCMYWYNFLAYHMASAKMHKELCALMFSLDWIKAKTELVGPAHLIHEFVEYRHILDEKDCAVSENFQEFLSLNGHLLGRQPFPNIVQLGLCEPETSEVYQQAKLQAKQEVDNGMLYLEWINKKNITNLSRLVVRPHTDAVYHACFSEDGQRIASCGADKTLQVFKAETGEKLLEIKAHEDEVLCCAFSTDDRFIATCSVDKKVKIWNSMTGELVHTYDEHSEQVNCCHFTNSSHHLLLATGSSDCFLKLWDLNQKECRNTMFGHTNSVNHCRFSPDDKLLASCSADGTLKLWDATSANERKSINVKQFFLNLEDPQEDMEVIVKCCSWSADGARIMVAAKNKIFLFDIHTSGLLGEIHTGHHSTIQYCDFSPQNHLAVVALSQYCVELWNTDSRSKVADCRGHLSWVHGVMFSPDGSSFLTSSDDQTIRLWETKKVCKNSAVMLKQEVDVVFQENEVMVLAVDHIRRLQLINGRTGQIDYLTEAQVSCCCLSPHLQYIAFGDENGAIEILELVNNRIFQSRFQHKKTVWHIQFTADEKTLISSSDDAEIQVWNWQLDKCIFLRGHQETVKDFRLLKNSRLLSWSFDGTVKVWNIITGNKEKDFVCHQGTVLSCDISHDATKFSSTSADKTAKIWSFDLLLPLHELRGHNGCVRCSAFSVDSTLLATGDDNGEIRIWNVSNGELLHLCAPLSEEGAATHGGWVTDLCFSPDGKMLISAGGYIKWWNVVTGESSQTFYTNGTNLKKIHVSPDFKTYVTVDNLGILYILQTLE

[16] = blockers of bursicon-stimulated LGR2 cAMP reporter – cell-based, HEK293, CRE-luciferase reporter, cherry pick, set 2, dose response (AID 743343); type: functional;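 note: transfected cells were stimulated with diluted bursicon conditioned medium after compound addition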
[17] = blockers of HIV-1 envelope-mediated cell-cell fusion – cherry-pick, dose response (AID 652057); type: functional, cell-based
[18] = blockers of HIV-1 ZM109 envelope-driven cell-cell fusion – HeLa effector, CEM target cells, luciferase, cherry-pick, dose response (AID 652058); type: functional, cell-based;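 note: luciferase signal from HIV-1 Env mediated cell-cell fusion of effector and target cells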
[19] = blockade of melanocortin 4 receptor signaling – cell-based, plate reader, cherry pick, counter-screen for LGR2 antagonist project, dose response (AID 743444); type: functional;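 note: transfected HEK 293 cells stimulated with alpha-MSH peptide; potency of inhibitors of the alpha-MSH evoked signal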
[20] = target: T3, Microphthalmia-associated transcription factor (Homo sapiens, UniProt O75030); assay: reducers of TRPM1 reporter luminescence, concentration series – cell-based, SK-MEL-5, cherry-picked, set 3, MITF inhibitor project, dose response (AID 493073); type: functional;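 note: SK-MEL-5 melanoma cells with luciferase driven by the MITF target TRPM1 promoter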
T3 sequence (O75030 whole entry): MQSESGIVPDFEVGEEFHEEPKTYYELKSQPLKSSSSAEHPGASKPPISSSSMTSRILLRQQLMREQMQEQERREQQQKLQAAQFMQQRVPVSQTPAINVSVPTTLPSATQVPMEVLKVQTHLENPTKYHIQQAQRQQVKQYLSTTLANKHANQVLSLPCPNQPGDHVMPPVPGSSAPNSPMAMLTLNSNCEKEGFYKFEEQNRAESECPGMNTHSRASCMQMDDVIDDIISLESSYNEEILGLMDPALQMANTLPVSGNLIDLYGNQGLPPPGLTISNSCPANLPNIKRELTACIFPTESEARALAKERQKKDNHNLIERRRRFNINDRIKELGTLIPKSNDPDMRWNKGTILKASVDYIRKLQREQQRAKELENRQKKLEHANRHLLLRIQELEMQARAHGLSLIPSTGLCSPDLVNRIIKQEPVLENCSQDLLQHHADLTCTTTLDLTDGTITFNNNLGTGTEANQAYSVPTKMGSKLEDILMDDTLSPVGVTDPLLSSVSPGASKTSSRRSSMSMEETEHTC

[21] = test system: BJ; assay: cells; type: functional, cell-based; details: Homo sapiens
[22] = target: T4, Caspase-6 (Homo sapiens, UniProt P55212); assay: inhibition of CASP6 peptide cleavage – biochemical, VEID-R110 fluorescence, cherry-pick, dose response (AID 720632)
T4 sequence (P55212 whole entry): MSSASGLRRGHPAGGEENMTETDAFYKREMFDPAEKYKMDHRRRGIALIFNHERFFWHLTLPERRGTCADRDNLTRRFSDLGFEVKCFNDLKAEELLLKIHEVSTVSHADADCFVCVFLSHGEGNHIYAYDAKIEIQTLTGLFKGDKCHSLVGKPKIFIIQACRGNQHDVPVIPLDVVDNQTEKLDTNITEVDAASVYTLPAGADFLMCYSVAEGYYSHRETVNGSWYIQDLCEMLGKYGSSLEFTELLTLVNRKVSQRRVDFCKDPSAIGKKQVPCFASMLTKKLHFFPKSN

[23] = test system: BJ; assay: BJ-TERT-LT-ST fibroblast viability loss – cell-based, RAS-independent, luminescence, dose response (AID 1935); type: functional; details: Homo sapiens;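 note: BJ fibroblasts immortalized with TERT plus LT and ST oncogenes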
[24] = test system: BJ; assay: BJ-TERT fibroblast viability loss – cell-based, RAS-independent, luminescence, dose response (AID 1933); type: functional; details: Homo sapiens
[25] = DRD fibroblast viability loss – cell-based, non-viral oncogenic, luminescence, dose response (AID 1934); type: functional; details: Homo sapiens
[26] = test system: Vero; assay: cells; type: functional; details: Chlorocebus sabaeus
[27] = target: T5, High affinity choline transporter 1 (Homo sapiens, UniProt Q9GZV3); assay: human choline transporter blockers, potency – cell-based, 5-point CRC, membrane potential dye, dose response (AID 504840); type: functional
T5 sequence (Q9GZV3 whole entry): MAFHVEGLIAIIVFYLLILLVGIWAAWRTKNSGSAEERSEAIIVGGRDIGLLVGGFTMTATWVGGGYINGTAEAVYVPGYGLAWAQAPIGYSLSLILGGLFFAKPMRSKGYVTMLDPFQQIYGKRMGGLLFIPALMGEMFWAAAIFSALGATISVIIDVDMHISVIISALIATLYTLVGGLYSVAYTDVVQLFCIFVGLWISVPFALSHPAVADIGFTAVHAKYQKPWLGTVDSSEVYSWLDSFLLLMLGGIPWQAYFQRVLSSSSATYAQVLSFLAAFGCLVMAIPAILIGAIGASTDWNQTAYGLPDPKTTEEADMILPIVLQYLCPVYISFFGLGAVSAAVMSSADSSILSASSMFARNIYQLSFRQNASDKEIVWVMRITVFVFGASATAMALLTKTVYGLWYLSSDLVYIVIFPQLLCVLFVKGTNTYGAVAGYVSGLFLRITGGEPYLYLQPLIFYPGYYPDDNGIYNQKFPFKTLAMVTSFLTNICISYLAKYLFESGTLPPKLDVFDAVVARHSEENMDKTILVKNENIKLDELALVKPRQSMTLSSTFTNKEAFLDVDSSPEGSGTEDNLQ

[28] = viability loss in THP-1 monocytes – THP-1 cells, cytotoxicity control for Vif-APOBEC3G degradation inhibitor project, dose response (AID 1117359); type: functional; details: THP-1
[29] = microbe, parasite or virus in culture; type: functional; details: Mycobacterium tuberculosis
[30] = P. falciparum Dd2 growth inhibitors, dose response, SYBR Green, cherry-picked samples (AID 1159567); type: functional, cell-based
[31] = growth inhibition of PfATP4-mutant resistant parasites – NITD609-resistant line, SYBR Green, dry powder, dose response (AID 1159571); type: functional, cell-based;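 note: parasites synchronized at ring stage by sorbitol before testing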
[32] = growth inhibition of yeast DHODH-expressing 3D7 parasites – SYBR Green, dry powder samples, dose response (AID 1159570); type: functional, cell-based;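 note: parasite growth measured after 72 hours of compound exposure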
[33] = Dd2 malaria parasite growth inhibition potency – SYBR Green, dry powder samples, dose response (AID 1159566); type: functional, cell-based;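 note: potency for growth inhibition with lower SYBR green DNA signal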

CCOc1ccccc1CNc1ncnc2ccc(-c3c(C)noc3C)cc12
active: AC50 [1] 21.6 µM | AC50 [2] 44.5 µM
inactive: AC50 [3] > 70 µM

CCOc1ccc(-[n+]2c(-c3ccccc3)cn3c2CCC3)cc1
active: EC50 [4] 0.351 µM | AC50 [5] 0.526 µM | AC50 [6] 1.43 µM | AC50 [7] 49 µM | EC50 [8] 24.2 µM | AC50 [9] 0.392 µM

CC(C)CC(=O)NC(=S)Nc1ccc(N2CCN(C(=O)c3cccs3)CC2)cc1
inactive: AC50 [9] > 70 µM
active: AC50 [5] 2.54 µM | AC50 [7] 41.2 µM | CC50 [10] 18.2 µM

CCOc1cc(/C=C/C(=O)Nc2ccc(C(=O)NCCN(CC)CC)cc2)ccc1OCC(C)C
active: AC50 [11] 7.47 µM | AC50 [12] 7.77 µM | AC50 [14] 7.83 µM | IC50 [15] 28.5 µM | AC50 [16] 35 µM
inactive: IC50 [13] > 20 µM

COc1ccc(Cl)cc1NC(=O)CN(C1CCCCC1)S(C)(=O)=O
active: AC50 [2] 2.69 µM | AC50 [17] 3.13 µM | AC50 [18] 5.49 µM | AC50 [3] 4.33 µM

O=S(=O)(c1ccc(F)cc1)c1snnc1-c1ccccc1
inconclusive: EC50 [21] 6.66 µM | EC50 [23] 6.51 µM | EC50 [24] 4.69 µM
active: AC50 [19] 5.8 µM | AC50 [11] 46.5 µM | AC50 [12] 11.1 µM | AC50 [20] 15.1 µM | AC50 [14] 4.15 µM | AC50 [22] 6.26 µM | AC50 [16] 9.39 µM | EC50 [25] 7.55 µM | CC50 [26] 6.75 µM

CN(Cc1cccs1)c1ncnc2sccc12
active: IC50 [27] 4.57 µM | AC50 [2] 16.9 µM | AC50 [18] 1.3 µM | AC50 [3] 56.6 µM

CCc1nc2cc(Cc3ccc4[nH]c(CC)nc4c3)ccc2[nH]1
active: CC50 [28] 15.5 µM

C=CCOc1ccc2c(c1)C(=NO)c1cc(OCC=C)ccc1-2
active: CC50 [29] > 40 µM | CC50 [28] > 40 µM

Cc1ccc(S(=O)(=O)N(C)C[C@@H]2Oc3ccc(NC(=O)C4CCCCC4)cc3CC(=O)N([C@@H](C)CO)C[C@@H]2C)cc1
active: AC50 [2] 12.2 µM | AC50 [17] 3.75 µM | AC50 [18] 2 µM

CCN1C[C@@H]2[C@@H]3C(=O)N(Cc4ccccc4)C(=O)[C@@H]3[C@](CC)(C1=O)N2C(=O)c1ccc(C(C)(C)C)cc1
active: AC50 [2] 4.4 µM | AC50 [17] 5.77 µM | AC50 [18] 20.2 µM | AC50 [3] 15.4 µM

CC(C)C[C@H]1COCn2nncc2CC[C@@H](Cc2ccccc2)C(=O)N1
active: AC50 [2] 12.9 µM | AC50 [17] 7.3 µM | AC50 [18] 7.51 µM

Cc1nn(-c2ccccc2)c(O)c1/C=N/NC(=O)c1ccoc1C
active: IC50 [15] 11.2 µM | CC50 [10] 4.71 µM

COc1ccc2c3c(n(C)c2c1)[C@@H](CO)N(CC1CCCCC1)CC31CCN(Cc2nccs2)CC1
active: AC50 [30] 1.12 µM | AC50 [31] 0.891 µM | AC50 [32] 0.835 µM | AC50 [33] 1.03 µM

COc1ccc(NC(=O)N2CCCCN3[C@H](CO)[C@H](c4ccc(C#Cc5ccccn5)cc4)[C@@H]3C2)cc1
active: AC50 [30] 0.301 µM | AC50 [31] 0.109 µM | AC50 [32] 0.109 µM | AC50 [33] 0.131 µM
